In US12662489B2 (Sitryx Therapeutics Limited, priority 2023, dated 2026):

Key:
[1] = target: T1, MTHFD2 recombinant human enzyme (Homo sapiens, UniProt P13995); assay: MTHFD2 inhibition assay (NAD(P)H-Glo luminescence); conditions: for MTHFD1/MTHFD2 IC50 ratio: selectivity of MTHFD2 inhibition over MTHFD1, band
T1 sequence (P13995 36-350): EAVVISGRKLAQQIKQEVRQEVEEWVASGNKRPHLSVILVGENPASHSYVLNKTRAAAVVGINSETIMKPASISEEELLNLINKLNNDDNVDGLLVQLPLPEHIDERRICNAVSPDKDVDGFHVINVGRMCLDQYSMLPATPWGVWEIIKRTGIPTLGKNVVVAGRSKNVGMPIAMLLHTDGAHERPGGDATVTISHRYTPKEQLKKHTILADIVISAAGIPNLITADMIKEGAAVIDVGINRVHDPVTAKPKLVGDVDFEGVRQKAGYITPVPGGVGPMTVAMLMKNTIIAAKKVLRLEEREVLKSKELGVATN

[2] = target: T2, MTHFD1 recombinant human enzyme (Homo sapiens, UniProt P11586); assay: MTHFD1 inhibition assay (NAD(P)H-Glo luminescence); conditions: MTHFD1 IC50, recombinant human enzyme 200 nM, NADP, band
T2 sequence (P11586 2-291 limits assumed): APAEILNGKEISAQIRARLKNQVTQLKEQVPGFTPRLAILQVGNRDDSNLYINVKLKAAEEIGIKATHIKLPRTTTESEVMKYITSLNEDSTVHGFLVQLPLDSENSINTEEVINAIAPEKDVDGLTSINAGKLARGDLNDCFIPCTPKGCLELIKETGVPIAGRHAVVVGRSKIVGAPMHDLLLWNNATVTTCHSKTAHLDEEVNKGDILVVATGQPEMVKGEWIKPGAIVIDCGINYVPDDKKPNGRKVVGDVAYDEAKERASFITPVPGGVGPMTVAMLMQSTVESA

| Structure (SMILES) | IC50 [1] [nM] | MTHFD1/MTHFD2 IC50 ratio [1] | IC50 [2] [nM] |
| --- | --- | --- | --- |
| COC[C@H]1CN(c2ccc3c4c(c(=O)oc3c2C)CN(C(=O)c2c(C)cc(C(=O)NS(=O)(=O)N3CCCC3)c(OC3CCC3)c2F)CC4)CCN1C [Example 140, (R)-2-cyclobutoxy-3-fluoro-4-(8-(3-(methoxymethyl)-4-methylpiperazin-1-yl)-7-methyl-5-oxo-1,3,4,5-tetrahydro-2H-chromeno[3,4-c]pyridine-3-carbonyl)-5-methyl-N-(pyrrolidin-1-ylsulfonyl) benzamide] | 100 to 1000 | F (<3) | 100 to 1000 |
| COC[C@H]1CN(c2cc(C)c3c4c(c(=O)oc3c2C)CN(C(=O)c2cc(N3CCCC3)c(C(=O)NS(=O)(=O)N3CCCC3)cc2F)CC4)CCN1C [Example 141, (R)-5-fluoro-4-(8-(3-(methoxymethyl)-4-methylpiperazin-1-yl)-7,10-dimethyl-5-oxo-1,3,4,5-tetrahydro-2H-chromeno[3,4-c]pyridine-3-carbonyl)-2-(pyrrolidin-1-yl)-N-(pyrrolidin-1-ylsulfonyl)benzamide] | 10 to 100 | F (<3) | 10 to 100 |
| COC[C@H]1CN(c2cc(C)c3c4c(c(=O)oc3c2C)CN(C(=O)c2cc(N3CCCC3)c(C(=O)NS(=O)(=O)C3(C)CC3)cc2F)CC4)CCN1C [Example 142, (R)-5-fluoro-4-(8-(3-(methoxymethyl)-4-methylpiperazin-1-yl)-7,10-dimethyl-5-oxo-1,3,4,5-tetrahydro-2H-chromeno[3,4-c]pyridine-3-carbonyl)-N-((1-methylcyclopropyl)sulfonyl)-2-(pyrrolidin-1-yl)benzamide] | 10 to 100 | G (^ 3 to 9.0) | 10 to 100 |
| CCOC[C@H]1CN(c2ccc3c4c(c(=O)oc3c2C)CN(C(=O)c2ccc(C(=O)NS(=O)(=O)N3CCCC3)c(OC3CCC3)c2F)CC4)CCN1C [Example 143, (R)-2-cyclobutoxy-4-(8-(3-(ethoxymethyl)-4-methylpiperazin-1-yl)-7-methyl-5-oxo-1,3,4,5-tetrahydro-2H-chromeno[3,4-c]pyridine-3-carbonyl)-3-fluoro-N-(pyrrolidin-1-ylsulfonyl)benzamide] | 10 to 100 | G (^ 3 to 9.0) | 100 to 1000 |
| CCOc1c(C(=O)NS(=O)(=O)N(C)C)ccc(C(=O)N2CCc3c(c(=O)oc4c(C)c(N5CCN(C)[C@@H](COC)C5)cc(C)c34)C2)c1F [Example 146, (R)-N-(N,N-dimethylsulfamoyl)-2-ethoxy-3-fluoro-4-(8-(3-(methoxymethyl)-4-methylpiperazin-1-yl)-7,10-dimethyl-5-oxo-1,3,4,5-tetrahydro-2H-chromeno[3,4-c]pyridine-3-carbonyl)benzamide] | 1 to 10 | F (<3) | 10 to 100 |
| COC[C@H]1CN(c2cc(C)c3c4c(c(=O)oc3c2C)CN(C(=O)c2ccc(C(=O)NS(=O)(=O)N(C)C)c(OC(C)C)c2F)CC4)CCN1C [Example 148, (R)-N-(N,N-dimethylsulfamoyl)-3-fluoro-2-isopropoxy-4-(8-(3-(methoxymethyl)-4-methylpiperazin-1-yl)-7,10-dimethyl-5-oxo-1,3,4,5-tetrahydro-2H-chromeno[3,4-c]pyridine-3-carbonyl)benzamide] | 1 to 10 | G (^ 3 to 9.0) | 10 to 100 |
| COC[C@H]1CN(c2cc(C)c3c4c(c(=O)oc3c2C)CN(C(=O)c2cc(N(C)C)c(C(=O)NS(=O)(=O)N3CCCC3)cc2C(F)(F)F)CC4)CCN1C [Example 152, (R)-2-(dimethylamino)-4-(8-(3-(methoxymethyl)-4-methylpiperazin-1-yl)-7,10-dimethyl-5-oxo-1,3,4,5-tetrahydro-2H-chromeno[3,4-c]pyridine-3-carbonyl)-N-(pyrrolidin-1-ylsulfonyl)-5-(trifluoromethyl)benzamide] | 100 to 1000 | H (>9.0 to 30) | > 5000 |
| COC[C@H]1CN(c2cc(C)c3c4c(c(=O)oc3c2C)CN(C(=O)c2cc(OC3CCCC3)c(C(=O)NS(=O)(=O)N(C)C)c(C(F)(F)F)c2)CC4)CCN1C [Example 153, (R)-2-(cyclopentyloxy)-N-(N,N-dimethylsulfamoyl)-4-(8-(3-(methoxymethyl)-4-methylpiperazin-1-yl)-7,10-dimethyl-5-oxo-1,3,4,5-tetrahydro-2H-chromeno[3,4-c]pyridine-3-carbonyl)-6-(trifluoromethyl)benzamide] | 10 to 100 | H (>9.0 to 30) | 1000 to 5000 |
| COC[C@H]1CN(c2cc(C)c3c4c(c(=O)oc3c2C)CN(C(=O)c2cc(OC)c(C(=O)NS(=O)(=O)N3CCCC3)c(C(F)(F)F)c2)CC4)CCN1C [Example 154, (R)-2-methoxy-4-(8-(3-(methoxymethyl)-4-methylpiperazin-1-yl)-7,10-dimethyl-5-oxo-1,3,4,5-tetrahydro-2H-chromeno[3,4-c]pyridine-3-carbonyl)-N-(pyrrolidin-1-ylsulfonyl)-6-(trifluoromethyl)benzamide] | 100 to 1000 | H (>9.0 to 30) | 1000 to 5000 |
| COC[C@H]1CN(c2cc(C)c3c4c(c(=O)oc3c2C)CN(C(=O)c2ccc(C(=O)NS(=O)(=O)N3C5CCC3COC5)c(OC)c2F)CC4)CCN1C [Example 158, N-((3-oxa-8-azabicyclo[3.2.1]octan-8-yl)sulfonyl)-3-fluoro-2-methoxy-4-(8-((R)-3-(methoxymethyl)-4-methylpiperazin-1-yl)-7,10-dimethyl-5-oxo-1,3,4,5-tetrahydro-2H-chromeno[3,4-c]pyridine-3-carbonyl)benzamide] | 10 to 100 | H (>9.0 to 30) | 100 to 1000 |
| COC[C@H]1CN(c2cc(C)c3c4c(c(=O)oc3c2C)CN(C(=O)c2cc(N(C)C)c(C(=O)NS(=O)(=O)C3(C)CC3)cc2C(F)(F)F)CC4)CCN1C [Example 159, (R)-2-(dimethylamino)-4-(8-(3-(methoxymethyl)-4-methylpiperazin-1-yl)-7,10-dimethyl-5-oxo-1,3,4,5-tetrahydro-2H-chromeno[3,4-c]pyridine-3-carbonyl)-N-((1-methylcyclopropyl)sulfonyl)-5-(trifluoromethyl)benzamide] | 100 to 1000 | H (>9.0 to 30) | > 5000 |
| CCOc1cc(C(=O)N2CCc3c(c(=O)oc4c(C)c(N5CCN(C)[C@@H](COC)C5)cc(C)c34)C2)cc(C(F)(F)F)c1C(=O)NS(=O)(=O)N1CCCC1 [Example 160, (R)-2-ethoxy-4-(8-(3-(methoxymethyl)-4-methylpiperazin-1-yl)-7,10-dimethyl-5-oxo-1,3,4,5-tetrahydro-2H-chromeno[3,4-c]pyridine-3-carbonyl)-N-(pyrrolidin-1-ylsulfonyl)-6-(trifluoromethyl)benzamide] | 100 to 1000 | H (>9.0 to 30) | 1000 to 5000 |
| COC[C@H]1CN(c2cc(C)c3c4c(c(=O)oc3c2C)CN(C(=O)c2cc(OC(C)C)c(C(=O)NS(=O)(=O)N3CCCC3)c(C(F)(F)F)c2)CC4)CCN1C [Example 161, (R)-2-isopropoxy-4-(8-(3-(methoxymethyl)-4-methylpiperazin-1-yl)-7,10-dimethyl-5-oxo-1,3,4,5-tetrahydro-2H-chromeno[3,4-c]pyridine-3-carbonyl)-N-(pyrrolidin-1-ylsulfonyl)-6-(trifluoromethyl)benzamide] | 10 to 100 | J (>30) | 1000 to 5000 |
| COC[C@@H]1CN(c2ccc3c4c(c(=O)oc3c2C)CN(C(=O)c2ccc(C(=O)NS(=O)(=O)N3CCCC3)c(OC3CCC3)c2F)CC4)CCN1C [Example 162, (S)-2-cyclobutoxy-3-fluoro-4-(8-(3-(methoxymethyl)-4-methylpiperazin-1-yl)-7-methyl-5-oxo-1,3,4,5-tetrahydro-2H-chromeno[3,4-c]pyridine-3-carbonyl)-N-(pyrrolidin-1-ylsulfonyl)benzamide] | 100 to 1000 | F (<3) | 100 to 1000 |
| COC[C@H]1CN(c2cc(C)c3c4c(c(=O)oc3c2C)CN(C(=O)c2ccc(OC3CCC3)c(C(=O)NS(=O)(=O)N3CCCC3)c2)CC4)CCN1C [Example 163, (R)-2-cyclobutoxy-5-(8-(3-(methoxymethyl)-4-methylpiperazin-1-yl)-7,10-dimethyl-5-oxo-1,3,4,5-tetrahydro-2H-chromeno[3,4-c]pyridine-3-carbonyl)-N-(pyrrolidin-1-ylsulfonyl)benzamide] | 100 to 1000 | H (>9.0 to 30) | > 5000 |
| COC[C@H]1CN(c2cc(C)c3c4c(c(=O)oc3c2C)CN(C(=O)c2cc(OC3CCC3)cc(C(=O)NS(=O)(=O)N3CCCC3)c2)CC4)CCN1C [Example 164, (R)-3-cyclobutoxy-5-(8-(3-(methoxymethyl)-4-methylpiperazin-1-yl)-7,10-dimethyl-5-oxo-1,3,4,5-tetrahydro-2H-chromeno[3,4-c]pyridine-3-carbonyl)-N-(pyrrolidin-1-ylsulfonyl)benzamide] | 100 to 1000 | H (>9.0 to 30) | > 5000 |
